In PMC9827809, “Identification of sitagliptin binding proteins by affinity purification mass spectrometry” (Acta Biochimica et Biophysica Sinica, 2022):
pKd: −log10 of the molar value.

Legend:
Type in all cases: binding
[1] = target: T1, T-complex protein 1 subunit alpha (TCP1) (Homo sapiens, UniProt P17987); assay: SPR (Biacore 8K, CM5 chip, immobilized protein); also SILAC AP-MS from HEK293T lysate
T1 construct: C-terminal Flag-His6 tag fused TCP1, expressed in E. coli BL21 (DE3)

[2] = target: T2, T-complex protein 1 subunit alpha (TCP1) (Homo sapiens, UniProt P17987, D88A); assay: SPR on mutant TCP1
T2 construct: TCP1 mutant D88A
T2 sequence (P17987 whole entry D88A, one chain of several): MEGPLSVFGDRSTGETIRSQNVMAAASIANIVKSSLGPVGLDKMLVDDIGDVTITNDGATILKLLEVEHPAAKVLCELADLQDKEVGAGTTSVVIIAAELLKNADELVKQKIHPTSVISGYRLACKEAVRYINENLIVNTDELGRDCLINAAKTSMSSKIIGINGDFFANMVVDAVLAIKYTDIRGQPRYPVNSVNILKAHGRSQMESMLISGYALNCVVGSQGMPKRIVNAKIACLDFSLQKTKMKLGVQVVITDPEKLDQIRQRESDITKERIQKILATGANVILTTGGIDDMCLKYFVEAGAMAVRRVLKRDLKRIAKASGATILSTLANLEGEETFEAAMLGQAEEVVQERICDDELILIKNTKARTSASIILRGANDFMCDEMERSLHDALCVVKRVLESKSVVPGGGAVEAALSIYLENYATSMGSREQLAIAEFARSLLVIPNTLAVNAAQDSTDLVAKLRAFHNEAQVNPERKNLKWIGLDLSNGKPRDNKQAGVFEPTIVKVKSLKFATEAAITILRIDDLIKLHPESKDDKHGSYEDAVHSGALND

[3] = target: T3, lysophospholipase-like 1 (LYPLAL1) (Homo sapiens, UniProt Q5VWZ2); assay: SPR (Biacore 8K, CM5 chip, immobilized protein); also SILAC AP-MS from HEK293T lysate
T3 construct: LYPLAL1 in pDEST15, expressed in E. coli BL21 (DE3)
T3 sequence (Q5VWZ2 2-237): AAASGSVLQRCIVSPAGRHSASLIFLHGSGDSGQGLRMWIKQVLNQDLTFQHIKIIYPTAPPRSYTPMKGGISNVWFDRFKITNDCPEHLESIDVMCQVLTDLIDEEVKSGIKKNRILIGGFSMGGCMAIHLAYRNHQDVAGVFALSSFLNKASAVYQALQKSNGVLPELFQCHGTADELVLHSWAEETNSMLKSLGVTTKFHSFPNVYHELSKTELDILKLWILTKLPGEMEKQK

[4] = target: T4, cell cycle and apoptosis regulator protein 2 (CCAR2) (Homo sapiens, UniProt Q8N163); assay: as above
T4 construct: C-terminal Flag tag fused CCAR2 in pGEX-4T-1 (GST-tagged), expressed in E. coli BL21 (DE3)
T4 sequence (Q8N163 whole entry, the tested form may be a part): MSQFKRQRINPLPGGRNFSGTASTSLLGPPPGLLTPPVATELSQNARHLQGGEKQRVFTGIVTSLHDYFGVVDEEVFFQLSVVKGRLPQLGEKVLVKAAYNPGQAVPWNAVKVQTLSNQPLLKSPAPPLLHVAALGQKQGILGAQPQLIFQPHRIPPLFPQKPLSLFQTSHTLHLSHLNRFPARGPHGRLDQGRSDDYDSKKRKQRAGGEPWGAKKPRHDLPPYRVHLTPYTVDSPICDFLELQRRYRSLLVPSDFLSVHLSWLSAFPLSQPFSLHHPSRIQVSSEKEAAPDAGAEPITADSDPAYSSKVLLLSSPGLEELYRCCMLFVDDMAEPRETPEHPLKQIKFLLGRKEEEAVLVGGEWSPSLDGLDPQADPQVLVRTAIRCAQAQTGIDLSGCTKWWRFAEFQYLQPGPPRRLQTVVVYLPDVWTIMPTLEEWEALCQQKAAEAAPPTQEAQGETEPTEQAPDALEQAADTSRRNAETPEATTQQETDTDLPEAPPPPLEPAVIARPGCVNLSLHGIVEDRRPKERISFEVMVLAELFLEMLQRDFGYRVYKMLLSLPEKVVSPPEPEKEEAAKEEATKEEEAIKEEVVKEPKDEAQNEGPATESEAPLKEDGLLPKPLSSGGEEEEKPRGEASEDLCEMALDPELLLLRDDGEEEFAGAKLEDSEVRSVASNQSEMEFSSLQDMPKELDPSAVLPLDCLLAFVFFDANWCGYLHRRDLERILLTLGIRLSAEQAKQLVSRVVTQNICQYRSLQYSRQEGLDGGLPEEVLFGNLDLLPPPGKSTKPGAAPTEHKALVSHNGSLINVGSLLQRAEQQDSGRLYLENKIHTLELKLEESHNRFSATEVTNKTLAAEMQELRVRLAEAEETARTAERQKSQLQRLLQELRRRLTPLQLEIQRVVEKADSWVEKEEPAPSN

T1 sequence (P17987 whole entry, the tested form may be a part, one chain of several): as the sequence (P17987 whole entry D88A, one chain of several) above, with A88D counted along it

**Q.** Which results are given for `O=C(CCCC[C@@H]1SC[C@@H]2NC(=O)N[C@@H]21)NCCOCCOCCOCCOCCOCc1cn([C@@H](CC(=O)N2CCn3c(nnc3C(F)(F)F)C2)Cc2cc(F)c(F)cc2F)nn1` [biotin-PEG5-sitagliptin]?
**A.** pKd [1]: 4.30; pKd [2]: 3.31; pKd [3]: 2.84; pKd [4]: 3.36
